Target: T1, NgBR/hCIT complex (hcisPT) (Homo sapiens, UniProt Q86SQ9+Q96E22)
T1 construct: gene DHDDS; full-length; N-terminal Strep-tag on hCIT, internal 6-His tag after Gly31 of NgBR; bicistronic vector in Expi293F
T1 sequence (Q86SQ9 1-333): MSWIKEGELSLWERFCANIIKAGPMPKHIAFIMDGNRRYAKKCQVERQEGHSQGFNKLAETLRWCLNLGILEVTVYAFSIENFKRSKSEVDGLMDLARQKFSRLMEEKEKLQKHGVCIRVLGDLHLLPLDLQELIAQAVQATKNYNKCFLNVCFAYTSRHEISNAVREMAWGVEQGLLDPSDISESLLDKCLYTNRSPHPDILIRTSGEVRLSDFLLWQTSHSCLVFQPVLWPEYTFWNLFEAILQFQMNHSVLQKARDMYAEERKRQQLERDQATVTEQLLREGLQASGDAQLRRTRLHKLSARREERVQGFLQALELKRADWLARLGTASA
T1 sequence (Q96E22 1-293): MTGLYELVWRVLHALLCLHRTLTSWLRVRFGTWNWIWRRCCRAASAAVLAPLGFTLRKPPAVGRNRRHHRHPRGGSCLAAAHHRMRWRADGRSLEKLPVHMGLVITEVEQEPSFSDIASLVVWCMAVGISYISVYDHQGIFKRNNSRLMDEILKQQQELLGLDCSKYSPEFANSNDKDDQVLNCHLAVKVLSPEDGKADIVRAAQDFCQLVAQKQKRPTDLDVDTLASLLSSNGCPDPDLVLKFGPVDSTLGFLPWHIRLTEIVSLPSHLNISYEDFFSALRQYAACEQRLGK
Test: […]-IPP incorporation, Michaelis-Menten fit
Assay type: biochemical
Conditions: 50 mM Tris-HCl pH 8, 1 mM MgCl2, 1% phosphatidylinositol, 37 C

Row | SMILES | Km (100 uM IPP, 0.1-50 uM FPP) | Km (50 uM FPP, 0.1-400 uM IPP, labelled compound)
1 | CC(C)=CCC/C(C)=C/CC/C(C)=C/COP(=O)(O)OP(=O)(O)O [FPP] | steady state kinetic parameters were measured for complexes containing the WT subunits, hCIT/NgBR | 
2 | C=C(C)CCOP(=O)(O)OP(=O)(O)O [IPP] |  | steady state kinetic parameters were measured for complexes containing the WT subunits, hCIT/NgBR

Source: doi:10.1101/139675v1, “Purification of the mammalian NgBR/hCIT cis-prenyltransferase complex: Identification of a conserved carboxyterminal RxG motif crucial for enzymatic activity” (biorxiv, 2017)
